Assay results taken from patent US7834023B2 (Portola Pharmaceuticals, Inc., priority 2006, dated 2010).

Tests used:
P2Y12 receptor = target: T1, P2Y12 receptor (Homo sapiens, UniProt Q9H244); experiment: platelet ADP receptor binding assay (ARB): inhibition of [3H]2-MeS-ADP binding to platelets; settings: [3H]2-MeS-ADP binding to apyrase-washed human platelets
T1 construct: endogenous in cells; host or cells: human platelets (outdated from blood banks or fresh), apyrase-washed, whole
In short: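 Apyrase-washed human platelets (1×10^8 per well) were preincubated 5 min with serial compound dilutions in Hepes-Tyrode's/0.1% BSA/0.6% DMSO, then incubated 15 min at room temperature with 1 nM [3H]2-MeS-ADP. Filter-bound radioactivity gave specific binding (nonspecific: 10 μM 2-MeS-ADP), and IC50s came from non-linear regression.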

[1] = system: human platelet-rich plasma (PRP); experiment: PRP assay: inhibition of ADP-mediated platelet aggregation in vitro; assay type: cell-based; settings: Homo sapiens, Platelet, ADP-induced aggregation
Description: The effect of testing the compound according to the invention on ADP-induced human platelet aggregation was assessed in a 96-well microtiter assay (see generally the procedures in Jantzen, H. M. et al. (1999) Thromb. Hemost. 81:111-117) or standard cuvette light transmittance aggregometry using either human platelet-rich plasma (PRP) or human washed platelets.
For preparation of human platelet-rich plasma for aggregation assays, human venous blood was collected from healthy, drug-free volunteers into 0.38% sodium citrate (0.013 M, pH 7.0 final). Platelet-rich plasma (PRP) is prepared by centrifugation of whole blood at 160×g for 20 minutes at room temperature. The PRP layer is removed, transferred to a new tube, and the platelet count is adjusted, if necessary, to achieve a platelet concentration of ˜3×10^8 platelets/ml using platelet-poor plasma (PPP). PPP is prepared by centrifugation of the remaining blood sample (after removal of PRP) for 20 minutes at 800×g. This preparation of PRP can subsequently be used for aggregation assays in either a 96-well plate or standard cuvette aggregometry.
For cuvette light transmittance aggregation assays, serial dilutions (1:3) of test compounds were prepared in 100% DMSO in a 96 well V-bottom plate (final DMSO concentration in the cuvette was 0.6%). The test compound (3 μl of serial dilutions in DMSO) was preincubated with PRP for 30-45 seconds prior to initiation of aggregation reactions, which were performed in a ChronoLog aggregometer by addition of agonist (5 or 10 μM ADP) to 490 μL of PRP at 37° C. In some cases, light transmittance aggregometry was performed using 490 μL of washed platelets (prepared as described above) at 37° C., and aggregation was initiated by addition of 5 μM ADP and 0.5 mg/ml human fibrinogen (American Diagnostics, Inc., Greenwich, Conn.). The aggregation reaction is recorded for ˜5 min, and maximum extent of aggregation is determined by the difference in extent of aggregation at baseline, compared to the maximum aggregation that occurs during the five minute period of the assay. Inhibition of aggregation was calculated as the maximum aggregation observed in the presence of inhibitor, compared to that in the absence of inhibitor. IC50s were derived by non-linear regression analysis using the Prism software (GraphPad, San Diego, Calif.).
Inhibition of ADP-dependent aggregation was also determined in 96-well flat-bottom microtiter plates using a microtiter plate shaker and plate reader similar to the procedure described by Frantantoni et al., Am. J. Clin. Pathol. 94, 613 (1990). All steps are performed at room temperature. For 96-well plate aggregation using platelet-rich plasma (PRP), the total reaction volume of 0.2 ml/well includes 180 μl of PRP (˜3×10^8 platelets/ml, see above), 6 μl of either serial dilution of test compounds in 20% DMSO or buffer (for control wells), and 10 μl of 20×ADP agonist solution (100 μM). The OD of the samples is then determined at 450 nm using a microtiter plate reader (Softmax, Molecular Devices, Menlo Park, Calif.) resulting in the 0 minute reading. The plates are then agitated for 5 min on a microtiter plate shaker and the 5 minute reading is obtained in the plate reader. Aggregation is calculated from the decrease of OD at 450 nm at t=5 minutes compared to t=0 minutes and is expressed as % of the decrease in the ADP control samples after correcting for changes in the unaggregated control samples. IC50s were derived by non-linear regression analysis.

T1 sequence (Q9H244 whole entry): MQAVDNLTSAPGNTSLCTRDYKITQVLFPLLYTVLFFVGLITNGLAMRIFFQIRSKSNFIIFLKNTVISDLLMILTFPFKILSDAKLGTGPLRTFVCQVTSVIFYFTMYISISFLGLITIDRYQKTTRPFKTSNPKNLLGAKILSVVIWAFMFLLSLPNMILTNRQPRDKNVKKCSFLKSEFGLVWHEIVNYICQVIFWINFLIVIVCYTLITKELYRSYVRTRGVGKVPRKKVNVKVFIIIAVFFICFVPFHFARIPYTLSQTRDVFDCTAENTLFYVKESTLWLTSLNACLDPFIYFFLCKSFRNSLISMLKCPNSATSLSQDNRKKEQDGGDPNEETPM

| SMILES | IC50 (P2Y12 receptor) [nM] | IC50 [1] [nM] |
| --- | --- | --- |
| CNc1cc2ccn(-c3ccc(C(=O)NC(C(=O)O)c4ccc(Cl)s4)cc3)c(=O)c2cc1F (stereo not shown) [Compound 90, 2-(5-chlorothiophen-2-yl)-2-(4-(7-fluoro-6-(methylamino)-1-oxoisoquinolin-2(1H)-yl)benzamido)acetic acid] | < 50 | 10000 to 30000 |
| CNc1cc2[nH]c(=O)n(-c3ccc(C(=O)NC(c4nnn[nH]4)c4ccc(Cl)s4)cc3)c(=O)c2cc1F (stereo not shown) [Compound 7, N-((5-chlorothiophen-2-yl)(1H-tetrazol-5yl)methyl)-4-(6-fluoro-7-(methylamino)-2,4-dioxo-1,2-dihydroquinazolin-3(4H)-yl)benzamide] | < 50 | < 10000 |
| CNc1cc2c(cc1F)C(=O)N(c1ccc(CNC(CC(=O)O)c3ccc(Cl)s3)cc1)CO2 (stereo not shown) [Compound 106, 3-(5-chlorothiophen-2-yl)-3-(4-(6-fluoro-7-(methylamino)-4-oxo-2H-benzo[e][1,3]oxazin-3(4H)-yl)benzylamino)propanoic acid] | 50 to 500 | > 30000 |
| CNc1cc2[nH]c(=O)n(-c3ccc(C(=O)NC(c4noc(=S)[nH]4)c4ccc(Cl)s4)cc3)c(=O)c2cc1F (stereo not shown) [Compound 32, N-((5-chlorothiophen-2-yl)(5-thioxo-4,5-dihydro-1,2,4-oxadiazol-3-yl)methyl)-4-(6-fluoro-7-(methylamino)-2,4-dioxo-1,2-dihydroquinazolin-3(4H)-yl)benzamide] | 50 to 500 | < 10000 |
| O=C(NCc1ccc(Cl)s1)c1ccc(-n2c(=O)[nH]c3cc(NCc4ccc(F)cc4)ccc3c2=O)cc1 [Compound 1, N-((5-chlorothiophen-2-yl)methyl)-4-(7-(4-fluorobenzylamino)-2,4-dioxo-1,2-dihydroquinazolin-3(4H)-yl)benzamide] | 50 to 500 | > 30000 |
| CNc1cc2c(cc1F)C(=O)N(c1ccc(C(=O)NC(c3nnn(C)n3)c3ccc(Cl)s3)cc1)CO2 (stereo not shown) [Compound 74, N-((5-chlorothiophen-2-yl)(2-methyl-2H-tetrazol-5-yl)methyl)-4-(6-fluoro-7-(methylamino)-4-oxo-2H-benzo[e][1,3]oxazin-3(4H)-yl)benzamide] | 50 to 500 | > 30000 |
| CNc1cc2c(cc1F)C(=O)N(c1ccc(C(=O)NC(C(=O)O)c3ccc(Cl)s3)cc1)CO2 (stereo not shown) [Compound 56, 2-(5-chlorothiophen-2-yl)-2-(4-(6-fluoro-7-(methylamino)-4-oxo-2H-benzo[e][1,3]oxazin-3(4H)-yl)benzamido)acetic acid] | < 50 | 10000 to 30000 |
| CNc1cc2[nH]c(=O)n(-c3ccc(C(=O)NC(C(=O)O)c4ccc(Cl)s4)c(F)c3)c(=O)c2cc1F (stereo not shown) [Compound 44, 2-(5-chlorothiophen-2-yl)-2-(2-fluoro-4-(6-fluoro-7-(methylamino)-2,4-dioxo-1,2-dihydroquinazolin-3(4H)-yl)benzamido)acetic acid] | 50 to 500 | 10000 to 30000 |
| CNc1cc2c(cc1F)C(=O)N(c1ccc(C(=O)NC(CC(=O)O)c3ccc(Cl)s3)cc1)CO2 (stereo not shown) [Compound 79, 3-(5-chlorothiophen-2-yl)-3-(4-(6-fluoro-7-(methylamino)-4-oxo-2H-benzo[e][1,3]oxazin-3(4H)-yl)benzamido)propanoic acid] | 50 to 500 | < 10000 |
| CNc1cc2c(cc1F)C(=O)N(c1ccc(C(=O)NC(C(=O)O)c3cccc(Cl)c3)cc1)CO2 (stereo not shown) [Compound 81, 2-(3-chlorophenyl)-2-(4-(6-fluoro-7-(methylamino)-4-oxo-2H-benzo[e][1,3]oxazin-3(4H)-yl)benzamido)acetic acid] | 50 to 500 | > 30000 |
| CNc1cc2[nH]c(=O)n(-c3ccc(C(=O)NC(C(N)=O)c4ccc(Cl)s4)cc3)c(=O)c2cc1F (stereo not shown) [Compound 47, N-(2-amino-1-(5-chlorothiophen-2-yl)-2-oxoethyl)-4-(6-fluoro-7-(methylamino)-2,4-dioxo-1,2-dihydroquinazolin-3(4H)-yl)benzamide] | 50 to 500 | < 10000 |
| CNc1cc2c(cc1F)C(=O)N(c1ccc(C(=O)NC(c3noc(=O)[nH]3)c3ccc(Cl)s3)cc1)CO2 (stereo not shown) [Compound 71, N-((5-chlorothiophen-2-yl)(5-oxo-4,5-dihydro-1,2,4-oxadiazol-3-yl)methyl)-4-(6-fluoro-7-(methylamino)-4-oxo-2H-benzo[e][1,3]oxazin-3(4H)-yl)benzamide] | < 50 | 10000 to 30000 |
| CNc1cc2c(cc1F)C(=O)N(c1ccc(C(=O)N[C@@H](C(=O)O)c3ccc(Cl)s3)cc1)CO2 [Compound 62, (S)-2-(5-chlorothiophen-2-yl)-2-(4-(6-fluoro-7-(methylamino)-4-oxo-2H-benzo[e][1,3]oxazin-3(4H)-yl)benzaamido)acetic acid] | < 50 | > 30000 |
| CNc1cc2[nH]c(=O)n(-c3ccc(C(=O)NC(C(=O)O)c4ccc(Cl)s4)c(C)c3)c(=O)c2cc1F (stereo not shown) [Compound 41, 2-(5-chlorothiophen-2-yl)-2-(4-(6-fluoro-7-(methylamino)-2,4-dioxo-1,2-dihydroquinazolin-3(4H)-yl)-2-methylbenzamido)acetic acid] | 50 to 500 | 10000 to 30000 |
| CNc1cc2c(cc1F)C(=O)N(c1ccc(C(=O)N(CC(=O)O)Cc3ccc(Cl)s3)cc1)CO2 [Compound 55] | 50 to 500 | > 30000 |
| CNc1cc2c(cc1F)C(=O)N(c1ccc(C(=O)NC(c3ccc(Cl)s3)c3nccs3)cc1)CO2 (stereo not shown) [Compound 82, N-((5-chlorothiophen-2-yl)(thiazol-2-yl)methyl)-4-(6-fluoro-7-(methylamino)-4-oxo-2H-benzo[e][1,3]oxazin-3(4H)-yl)benzamide] | 50 to 500 | > 30000 |
| O=C(NC(C(=O)O)c1cccs1)c1ccc(-n2c(=O)[nH]c3cc(NCc4ccc(F)cc4)ccc3c2=O)cc1 (stereo not shown) [Compound 2, 2-(4-(7-(4-fluorobenzylamino)-2,4-dioxo-1,2-dihydroquinazolin-3(4H)-yl)benzamido)-2-(thiophen-2-yl)acetic acid] | 50 to 500 | > 30000 |
| CNc1cc2ccn(-c3ccc(C(=O)NC(c4nnn[nH]4)c4ccc(Cl)s4)cc3)c(=O)c2cc1F (stereo not shown) [Compound 91, N-((5-chlorothiophen-2-yl)(1H-tetrazol-5-yl)methyl)-4-(7-fluoro-6-(methylamino)-1-oxoisoquinolin-2(1H)-yl)benzamide] | < 50 | 10000 to 30000 |
| CNc1cc2[nH]c(=O)n(-c3ccc(C(=O)NC(c4noc(=O)[nH]4)c4ccc(Cl)s4)cc3OC)c(=O)c2cc1F (stereo not shown) [Compound 53, N-((5-chlorothiophen-2-yl)(5-oxo-4,5-dihydro-1,2,4-oxadiazol-3-yl)methyl)-4-(6-fluoro-7-(methylamino)-2,4-dioxo-1,2-dihydroquinazolin-3(4H)-yl)-3-methoxybenzamide] | 50 to 500 | > 30000 |
| CNc1cc2[nH]c(=O)n(-c3ccc(C(=O)NC(c4cccc(Cl)c4)c4nnn[nH]4)cc3)c(=O)c2cc1F (stereo not shown) [Compound 11, N-((3-chlorophenyl)(1H-tetrazol-5-yl)methyl)-4-(6-fluoro-7-(methylamino)-2,4-dioxo-1,2-dihydroquinazolin-3(4H)-yl)benzamide] | 50 to 500 | > 30000 |
